Laboratory results as given in PMC9594047, “Identification of the Allosteric Binding Site for Thiazolopyrimidine on the C-Type Lectin Langerin” (ACS Chemical Biology, 2022).
Substitutions are numbered along the chain they refer to. Where a SMILES comes first, the peptide text is derived from it.

Tests used:
[1] = target: T1, murine Langerin (mLang) CRD wild type (Mus musculus, UniProt Q8VBX4); assay: 1H-15N HSQC NMR titration, mLang CRD wild type; type: binding; details: from CSP trajectories, 298 K; for Kd: pH 6, read-out: 15N HSQC KD mLang (Murine-WT); for 15N HSQC KD mLang (Murine-WT): pH 6
T1 construct: 194 - 331, were cloned from a codon-optimized Langerin gene; His-tag (N); made in house; host or cells: E. coli BL21
T1 sequence (Q8VBX4 194-331): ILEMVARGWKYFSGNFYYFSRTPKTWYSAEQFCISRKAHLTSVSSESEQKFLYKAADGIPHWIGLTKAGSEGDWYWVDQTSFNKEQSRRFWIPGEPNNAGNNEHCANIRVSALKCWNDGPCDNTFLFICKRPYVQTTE
Description: (§1) Protein expression and purification hLang and mLang CRD wild type and all the mutants, ranging from amino acids 193 - 328 and 194 - 331, were cloned from a codon-optimized Langerin gene for bacterial expression (GenScript, Piscataway, NJ, USA) into a pET-28a vector (GenScript, Piscataway, NJ, USA) carrying an N-terminal His-tag and a T7 promoter. All constructs were expressed in E. coli BL21 (ThermoFisher Scientific, Waltham, MA, USA) in LB medium or in M9 medium at 37 °C. Protein expression was induced by adding 1 mM IPTG (isopropyl β-D-1-thiogalactopyranoside) at an OD600 between 0.7 - 1 and were grown overnight at 37 °C. Bacteria were harvested by centrifugation at 4000 g for 30 mins. Cells were lysed in lysis buffer (50 mM Tris, 150 mM NaCl, 10 mM MgCl2, 0.1% Tween-20, pH 8) with 1 mg/mL lysozyme (Sigma Aldrich, St. Louis, MO, USA) and 100 μg/mL DNase I (Applichem, Darmstadt, Germany) for at least 3 h at room temperature or 4 °C overnight or sonicated 1 h with amplitude 55%. Inclusion bodies were harvested by centrifugation at 15000 g […]
(§2) Inclusion bodies were washed twice with lysis buffer and ultrapure water to remove cell debris and soluble proteins. Then inclusion bodies were denatured with 20 mL of denaturation buffer (6 M guanidinium hydrochloride in 100 mM Tris (pH 8)) with 0.01% β -mercaptoethanol for at least 1 h at 37 °C, shaking at 220 rpm. The supernatant was slowly diluted 1:10 with CTL refolding buffer (0.4 M L-arginine in 50 mM Tris, 20 mM NaCl, 0.8 mM KCl, pH 8.3) with 1 mM reduced glutathione (GSH) and 0.1 mM oxidized glutathion e (GSSG) while stirring at 4 °C for at least 48 h after centrifugation (15,000 x g, 90 min, 4 °C). The refolded protein solution was dialyzed against 5 L TBS buffer (50 mM Tris, 150 mM NaCl, 5 mM CaCl 2) and then centrifuged to remove precipitated protein (15,000 x g, 90 min, 4 °C). The supernatant was purified by Ni -NTA agarose […]
(§3) affinity chromatography (Thermo Fisher) and the fractions of the elution were pooled and dialyzed against MES buffer (25 mM MES, 40 mM NaCl, 5 mM CaCl2, pH 6). Precipitated protein was removed by centrifugation (15,000 x g, 90 min, 4 °C) and the supernatant was used for experiments. We then concentrated protein with 5 - 6 mg/mL as the final concentration.
(§4) 1H-15N HSQC NMR measurements and backbone resonance assignment
(§5) NMR assignment and 15N-HSQC NMR for CSP plot and KD calculations were performed on a 700 MHz Bruker Advance III spectrometer (Bruker, Billerica, MA, USA) equipped with a PRODIGY probe. For mLang CRD backbone assignment, we performed a series of standard triple resonance experiments HNCA, HNCACB, HN(CO)CA and HN(CO)CACB as Hanske et al. described.1 Data was analyzed by using CcpNmr 2.5.1.2 In total, 88% of the residues were unambiguously assigned.
(§6) Most of the unassigned residues are prolines or residues in the mobile loops near the CBS, as reported for similar protein for example human Langerin.1 For the sample preparation, we used 300 µM 15N and 13C labeled protein, which is in 25 mM MES, 40 mM NaCl, 5 mM CaCl2, pH 6 containing 100 μM DSS, 0.05% NaN3, and 10% D2O buffer. 1H–15N HSQC NMR titrations experiments were performed with 100 μM of Langerin CRD containing 50 μM 4,4-dimethyl-4-silapentane-1-sulfonic acid (DSS) as an internal reference, and 10% D2O. 128 increments and 4 - 16 transients were recorded at 298 K, depending on the protein concentration and the machine implemented. NMR titration data were processed and analyzed, as previously done in Hanske et al. described (2016).1 The protein sample was added stepwise for titration of the thiazolopyrimidine derivatives or peptides until the most solubility tolerance was reached as the final concentration. Step size according to expected KD varied.

[2] = target: T2, human Langerin (hLang) CRD wild type (Homo sapiens, UniProt Q9UJ71); assay: 1H-15N HSQC NMR titration, hLang CRD wild type; type: binding; details: for Kd / 15N HSQC KD hLang (Human-WT): hLang CRD wild type, from CSP trajectories, 298 K, pH 6; for Kd: read-out: 15N HSQC KD hLang (Human-WT)
T2 construct: ranging from amino acids 193 - 328 and; His-tag (N); made in house; host or cells: E. coli BL21
T2 sequence (Q9UJ71 193-328): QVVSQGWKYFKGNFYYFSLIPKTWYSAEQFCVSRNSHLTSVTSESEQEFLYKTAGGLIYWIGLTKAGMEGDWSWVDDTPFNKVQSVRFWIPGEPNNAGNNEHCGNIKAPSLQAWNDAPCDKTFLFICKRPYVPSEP
Description: as §1, §2, §3, §4, §5, §6

[3] = target: T3, mLang S263M-Y268S (Mus musculus, UniProt Q8VBX4, S263M/Y268S); assay: 1H-15N HSQC NMR titration, mLang CRD double mutant; type: binding, murine; details: for Kd: mLang CRD S263M-Y268S mutant, read-out: 15N HSQC KD Murine-S263M-Y268S
T3 construct: 194 - 331, were cloned from a codon-optimized Langerin gene; His-tag (N); made in house; host or cells: E. coli BL21
T3 sequence (Q8VBX4 194-331 S263M/Y268S): T1 sequence (Q8VBX4 194-331) with S70M, Y75S
Description: as §1
Inclusion bodies were washed twice with lysis buffer and ultrapure water to remove cell debris and soluble proteins. Then inclusion bodies were denatured with 20 mL of denaturation buffer (6 M guanidinium hydrochloride in 100 mM Tris (pH 8)) with 0.01% β -mercaptoethanol for at least 1 h at 37 °C, shaking at 220 rpm. […]
as §5
as §6, with “1H–15N HSQC NMR titrations experiments were performed with 100 μM of Langerin CRD containing 50 μM 4,4-dimethyl-4-silapentane-1-sulfonic acid (DSS) as an internal reference, and 10% D2O.” left out, “Step size according to expected KD varied.” left out

[4] = target: T4, hLang M260S-S265Y (Homo sapiens, UniProt Q9UJ71, M260S/S265Y); assay: 1H-15N HSQC NMR titration, hLang CRD double mutant; type: binding; details: for Kd: hLang CRD M260S-S265Y mutant
T4 construct: ranging from amino acids 193 - 328 and; His-tag (N); made in house; host or cells: E. coli BL21
T4 sequence (Q9UJ71 193-328 M260S/S265Y): as the sequence (Q9UJ71 193-328) above, with M68S, S73Y counted along it
Description: as §1
Inclusion bodies were washed twice with lysis buffer and ultrapure water to remove cell debris and soluble proteins. […]
as §5
Most of the unassigned residues are prolines or residues in the mobile loops near the CBS, as reported for similar protein for example human Langerin.1 For the sample preparation, we used 300 µM 15N and 13C labeled protein, which is in 25 mM MES, 40 mM NaCl, 5 mM CaCl2, pH 6 containing 100 μM DSS, 0.05% NaN3, and 10% D2O buffer. […] 128 increments and 4 - 16 transients were recorded at 298 K, depending on the protein concentration and the machine implemented. […]

Kd [1] [µM] | Kd [2] [µM] | 15N HSQC KD mLang (Murine-WT) [1] | 15N HSQC KD hLang (Human-WT) [2] | Structure (SMILES) | further results
400 ± 140 | 900 ± 300 | – | – | Cc1sc2ncc(C(=O)O)c(=O)n2c1C [Compound 4] | –
610 ± 110 | – | micromolar affinity | no detectable binding and nb | Cc1csc2ncc(C(=O)O)c(=O)n12 [Compound 5] | –
230 ± 60 | – | micromolar affinity | no detectable binding and nb | COc1cc2c(cc1OC)CC(NC(=O)c1cnc3sccn3c1=O)C2 [Compound 6] | –
280 ± 160 | – | micromolar affinity | no detectable binding and nb | O=C(NCc1ccc2c(c1)OCO2)c1c(O)nc2sccn2c1=O [Compound 7] | –

Second part, the compound before the results:

Structure (SMILES) | Kd [1] [µM] | Kd [2] [µM] | 15N HSQC KD mLang (Murine-WT) [1] | 15N HSQC KD hLang (Human-WT) [2] | further results
C[C@H](N)C(=O)N[C@@H](Cc1c[nH]c2ccccc12)C(=O)N[C@@H](CO)C(=O)O [AWS] (H-Ala-Trp-Ser-OH) | 1600 ± 300 | 2400 ± 940 | – | – | –
O=C(O)c1cnc2sccn2c1=O [Compound 1] | 1800 ± 600 | 130 ± 40 | – | – | fold higher affinity for hLang compared to mLang ([2]; hLang vs mLang wild type): more than 10 fold; Kd [3]: 0.48 ± 0.34 mM; fold increase in affinity for mLang S263M-Y268S compared to WT ([3]; mutant vs WT): 3 fold; Kd [4]: 340 ± 220 µM; fold decrease in affinity to hLang M260S-S265Y compared to WT ([4]; mutant vs WT): 3 fold
COc1ccccc1CNC(=O)c1cnc2sccn2c1=O [Compound 2] | 160 ± 60 | – | micromolar affinity | not detectable and no detectable binding and nb | Kd [3]: 1.74 ± 0.16 mM; fold decrease in binding affinity to mLang S263M-Y268S compared to WT ([3]; mutant vs WT): 10 fold; Kd [4]: 450 ± 280 µM
O=C(NCCc1cn2c(n1)SCC2)c1cnc2sccn2c1=O [Compound 3] | 1140 ± 60 | 110 ± 40 | – | – | –
C[C@H](NC(=O)[C@@H](N)CO)C(=O)N[C@@H](Cc1c[nH]c2ccccc12)C(=O)N[C@@H](CO)C(=O)O [SAWS] (H-SAWS-OH) | 670 ± 230 | 820 ± 130 | high-micromolar affinity | high-micromolar affinity | –
N[C@@H](CO)C(=O)N[C@@H](CO)C(=O)N[C@@H](Cc1c[nH]c2ccccc12)C(=O)N[C@@H](CO)C(=O)O [SSWS] (H-SSWS-OH) | 460 ± 30 | – | – | – | –
